Source: the Kinase Knowledgebase extract (Sharma et al. 2016)

Molecular target: PIK3CA (human) (UniProt P42336)
Assay: Assessment of PIK3CA Kinase Activity

Chain of PIK3CA (human) (P42336 whole entry, looked up): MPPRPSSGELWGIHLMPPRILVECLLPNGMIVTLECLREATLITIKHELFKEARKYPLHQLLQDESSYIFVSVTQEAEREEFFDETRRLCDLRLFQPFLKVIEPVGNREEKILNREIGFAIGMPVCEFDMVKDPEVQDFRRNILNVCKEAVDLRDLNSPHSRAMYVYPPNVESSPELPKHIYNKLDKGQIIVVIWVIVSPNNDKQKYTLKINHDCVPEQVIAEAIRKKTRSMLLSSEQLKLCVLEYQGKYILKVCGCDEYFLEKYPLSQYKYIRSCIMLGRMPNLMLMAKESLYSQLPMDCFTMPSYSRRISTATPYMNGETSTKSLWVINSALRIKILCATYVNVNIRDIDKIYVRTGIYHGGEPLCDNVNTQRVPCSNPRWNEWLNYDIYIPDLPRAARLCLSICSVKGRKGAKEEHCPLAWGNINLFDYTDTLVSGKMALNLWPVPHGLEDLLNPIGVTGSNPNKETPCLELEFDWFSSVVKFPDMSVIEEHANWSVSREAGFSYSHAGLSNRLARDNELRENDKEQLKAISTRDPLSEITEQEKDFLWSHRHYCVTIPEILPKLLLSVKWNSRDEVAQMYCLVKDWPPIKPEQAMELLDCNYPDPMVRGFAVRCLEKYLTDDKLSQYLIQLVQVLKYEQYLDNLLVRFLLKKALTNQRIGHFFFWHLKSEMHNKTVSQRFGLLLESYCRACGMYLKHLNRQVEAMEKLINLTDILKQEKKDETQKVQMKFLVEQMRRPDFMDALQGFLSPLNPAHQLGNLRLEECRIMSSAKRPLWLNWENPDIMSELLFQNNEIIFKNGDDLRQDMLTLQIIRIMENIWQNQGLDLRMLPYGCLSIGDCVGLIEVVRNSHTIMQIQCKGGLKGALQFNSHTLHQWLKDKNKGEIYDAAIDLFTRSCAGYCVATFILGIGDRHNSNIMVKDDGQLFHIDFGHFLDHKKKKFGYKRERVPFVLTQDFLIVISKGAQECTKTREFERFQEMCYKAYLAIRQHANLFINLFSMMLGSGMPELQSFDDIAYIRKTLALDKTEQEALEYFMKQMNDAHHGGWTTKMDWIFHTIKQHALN

Structure (SMILES) | IC50
COc1ccc2c(N3CCOc4ccc(-c5ccc6[nH]cnc6c5)cc4C3)nc(CN(C)C)nc2c1 | ≤ 100 nM
COc1ccc(-c2ccc3c(c2)CN(c2nc(CN(C)C)nc4c2CC(C)(C)CC4)CCO3)cc1C(C)=O | 100 to 500 nM
COc1ccc(-c2ccc3c(c2)CN(c2nc(CN(C)C)nc4c2CC(C)(C)CC4)CCO3)cc1OC(F)F | ≤ 100 nM
Cc1nc2cc(-c3ccc4c(c3)CN(c3nc(CN(C)C)nc(C)c3CCCF)CCO4)ccc2[nH]1 | ≤ 100 nM
C=CCc1c(C)nc(CN(C)C)nc1N1CCOc2ccc(-c3ccc4nc(C)[nH]c4c3)cc2C1 | ≤ 100 nM
Cc1nc2ncc(-c3ccc4c(c3)CN(c3nc(N)nc5c3CC(C)(C)CC5)CCO4)cc2[nH]1 | ≤ 100 nM
Cc1nc(N)nc(N2CCOc3ccc(-c4cnc5[nH]cnc5c4)cc3C2)c1C(C)C | ≤ 100 nM
CC1(C)CCc2nc(N)nc(N3CCOc4ccc(-c5ccc6[nH]cnc6c5)cc4C3)c2C1 | ≤ 100 nM
COCCOc1cc(-c2ccc3c(c2)CN(c2nc(CN(C)C)nc4c2CC(C)(C)CC4)CCO3)ccc1OC | ≤ 100 nM
Cc1nc2cc(-c3ccc4c(c3)CN(c3nc(CN5CCCC5)nc(C)c3C(C)C)CCO4)ccc2[nH]1 | ≤ 100 nM
Cc1nc2cc(-c3ccc4c(c3)CN(c3nc(NCCN(C)C)nc(C)c3Cc3ccc(F)cc3)CCO4)ccc2[nH]1 | ≤ 100 nM
COc1ccc2c(N3CCOc4ccc(-c5ccc6[nH]c(C)nc6c5)cc4C3)nc(CN(C)C)nc2c1 | ≤ 100 nM
Cc1nc2cc(-c3ccc4c(c3)CN(c3nc(C(C)N)nc5c3CC(C)(C)CC5)CCO4)ccc2[nH]1 (stereo not given) | ≤ 100 nM
CC(=O)NCc1nc2c(c(N3CCOc4ccc(-c5ccc6[nH]c(C)nc6c5)cc4C3)n1)CC(C)(C)CC2 | ≤ 100 nM
COC(=O)Cc1c(C)nc(CN(C)C)nc1N1CCOc2ccc(-c3ccc4nc(C)[nH]c4c3)cc2C1 | ≤ 100 nM
Cc1nc2cc(-c3ccc4c(c3)CN(c3nc(CN(C)C)nc(C)c3CC(C)C)CCO4)ccc2[nH]1 | 100 to 500 nM
Cc1nc2cc(-c3ccc4c(c3)CN(c3nc(CN(C)C)nc(C)c3Cl)CCO4)ccc2[nH]1 | 100 to 500 nM
Cc1nc2cc(-c3ccc4c(c3)CN(c3nc(CN(C)C)nc(C)c3-c3ccccc3)CCO4)ccc2[nH]1 | 100 to 500 nM
Cc1nc2cc(-c3ccc4c(c3)CN(c3nc(N)nc5c3CC(C)(C)CC5)CCO4)ccc2[nH]1 | ≤ 100 nM
Cc1nc2ccc(-c3cc(F)c4c(c3)CN(c3nc(N)nc(C)c3C(C)C)CCO4)cc2[nH]1 | ≤ 100 nM
Cc1nc2cc(-c3ccc4c(c3)CN(c3nc(CNCCF)nc(C)c3C(C)C)CCO4)ccc2[nH]1 | ≤ 100 nM
Cc1nc(N)nc(N2CCOc3ccc(-c4ccc5[nH]cnc5c4)cc3C2)c1Cc1ccc(F)cc1 | ≤ 100 nM
COC(=O)Nc1nc2cc(-c3ccc4c(c3)CN(c3nc(N)nc(C)c3C(C)C)CCO4)ccc2[nH]1 | ≤ 100 nM
Cc1nc2cc(-c3ccc4c(c3)CN(c3nc(CN(C)C)nc(C)c3Br)CCO4)ccc2[nH]1 | ≤ 100 nM
CC(=O)OCc1nc(C)c(C(C)C)c(N2CCOc3ccc(-c4ccc5nc(C)[nH]c5c4)cc3C2)n1 | ≤ 100 nM

Structure (SMILES) | IC50
Cc1nc2cc(-c3ccc4c(c3)CN(c3nc(NC5CNC5)nc(C)c3C(C)C)CCO4)ccc2[nH]1 | ≤ 100 nM
CCNc1nc(C)c(Cc2ccc(F)cc2)c(N2CCOc3ccc(-c4ccc5[nH]c(C)nc5c4)cc3C2)n1 | 100 to 500 nM
Cc1nc2cc(-c3ccc4c(c3)CN(c3nc(CF)nc5c3CC(C)(C)CC5)CCO4)ccc2[nH]1 | ≤ 100 nM
Cc1nc2cc(-c3ccc4c(c3)CN(c3nc(NCCCN(C)C)nc(C)c3Cc3ccc(F)cc3)CCO4)ccc2[nH]1 | 100 to 500 nM
Cc1nc2ccc(-c3ccc4c(c3)CN(c3nc(CO)nc(C)c3C(C)C)CCO4)cc2[nH]1 | ≤ 100 nM
Cc1nc2cc(-c3ccc4c(c3)CN(c3nc(N)nc(C)c3C(C)C)CCO4)ccc2[nH]1 | ≤ 100 nM
CCN(CC)Cc1nc(C)c(C(C)C)c(N2CCOc3ccc(-c4ccc5nc(C)[nH]c5c4)cc3C2)n1 | ≤ 100 nM
Cc1nc2cc(-c3ccc4c(c3)CN(c3nc(NC5CNC5)nc(C)c3Cc3ccc(F)cc3)CCO4)ccc2[nH]1 | ≤ 100 nM
CCNc1nc2cc(-c3ccc4c(c3)CN(c3nc(N)nc(C)c3C(C)C)CCO4)ccc2[nH]1 | ≤ 100 nM
COc1ccc(-c2ccc3c(c2)CN(c2nc(CN(C)C)nc4c2CC(C)(C)CC4)CCO3)cc1S(C)(=O)=O | ≤ 100 nM
CC1(C)CCc2nc(N)nc(N3CCOc4ccc(-c5cnc6[nH]cnc6c5)cc4C3)c2C1 | ≤ 100 nM
COc1ccc(-c2ccc3c(c2)CN(c2nc(N)nc(C)c2C(C)C)CCO3)cc1NS(C)(=O)=O | 100 to 500 nM
Cc1nc2ccc(-c3ccc4c(c3)CN(c3nc(CN(C)C)nc(C)c3C)CCO4)cc2[nH]1 | ≤ 100 nM
COc1ccc(-c2ccc3c(c2)CN(c2nc(CN(C)C)nc(C)c2C(C)C)CCO3)cc1NS(C)(=O)=O | ≤ 100 nM
Cc1nc(N)nc(N2CCOc3ccc(-c4cnc5[nH]c(N)nc5c4)cc3C2)c1C(C)C | ≤ 100 nM
COc1ccc2c(N3CCOc4ccc(-c5cnc6[nH]cnc6c5)cc4C3)nc(CN(C)C)nc2c1 | ≤ 100 nM
Cc1nc2cc(-c3ccc4c(c3)CN(c3cc(N)ncc3C#N)CCO4)ccc2[nH]1 | ≤ 100 nM
Cc1nc(N)nc(N2CCOc3ccc(-c4ccc5[nH]cnc5c4)cc3C2)c1C(C)C | ≤ 100 nM
C=CCc1c(C)nc(N)nc1N1CCOc2ccc(-c3ccc4nc(C)[nH]c4c3)cc2C1 | ≤ 100 nM
COCCc1c(C)nc(CN(C)C)nc1N1CCOc2ccc(-c3ccc4nc(C)[nH]c4c3)cc2C1 | ≤ 100 nM
Cc1nc2cc(-c3ccc4c(c3)CN(c3nc(N)nc(C)c3Cc3ccc(F)cc3)CCO4)cnc2[nH]1 | ≤ 100 nM
Cc1nc(N)nc(N2CCOc3ccc(-c4cnc5[nH]cnc5c4)cc3C2)c1Cc1ccc(F)cc1 | ≤ 100 nM
CCCc1c(C)nc(CN(C)C)nc1N1CCOc2ccc(-c3ccc4nc(C)[nH]c4c3)cc2C1 | ≤ 100 nM
Cc1nc2cc(-c3ccc4c(c3)CN(c3nc(N)nc(C)c3C(C)C)CCO4)cnc2[nH]1 | ≤ 100 nM
Cc1nc2cc(-c3ccc4c(c3)CN(c3nc(N)nc(C)c3Cc3ccc(F)cc3)CCO4)ccc2[nH]1 | ≤ 100 nM
